Measurements reported in ChEMBL document CHEMBL1909046, “DrugMatrix in vitro pharmacology data”.

How the values were obtained:
Acetylcholinesterase = Acetylcholinesterase (Homo sapiens, UniProt P22303); test: DRUGMATRIX: Acetylcholinesterase enzyme inhibition (substrate: acetylthiocholine); type: cell-based, HEK293; conditions: hek293; Not Active = under 50% inhibition at 10 µM
Interstitial collagenase = target: T1, Interstitial collagenase (Homo sapiens, UniProt P03956); type: tissue-based, Rheumatoid synovial fibroblasts;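 note: MMP-1 enzyme inhibition assay using a peptide substrate; in other assays of this panel Not Active means under 50% inhibition at 10 µM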
T1 sequence (P03956 whole entry): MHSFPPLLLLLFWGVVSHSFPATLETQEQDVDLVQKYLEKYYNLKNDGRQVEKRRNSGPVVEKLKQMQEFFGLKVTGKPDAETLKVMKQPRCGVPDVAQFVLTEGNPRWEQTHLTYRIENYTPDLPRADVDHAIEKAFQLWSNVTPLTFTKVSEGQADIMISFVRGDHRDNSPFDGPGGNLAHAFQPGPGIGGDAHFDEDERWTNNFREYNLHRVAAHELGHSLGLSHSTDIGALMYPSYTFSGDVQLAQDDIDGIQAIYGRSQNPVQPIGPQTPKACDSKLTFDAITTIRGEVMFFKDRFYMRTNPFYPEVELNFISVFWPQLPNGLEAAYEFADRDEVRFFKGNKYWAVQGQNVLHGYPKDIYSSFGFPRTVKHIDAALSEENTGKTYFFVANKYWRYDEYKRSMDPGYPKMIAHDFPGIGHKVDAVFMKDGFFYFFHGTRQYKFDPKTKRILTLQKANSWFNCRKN

[1] = target: T2, Vasoactive intestinal polypeptide receptor 1 (Homo sapiens, UniProt P32241); type: cell membranes, Membrane; conditions: ht-29; note: in other assays of this panel Not Active means under 50% inhibition at 10 µM
T2 sequence (P32241 whole entry): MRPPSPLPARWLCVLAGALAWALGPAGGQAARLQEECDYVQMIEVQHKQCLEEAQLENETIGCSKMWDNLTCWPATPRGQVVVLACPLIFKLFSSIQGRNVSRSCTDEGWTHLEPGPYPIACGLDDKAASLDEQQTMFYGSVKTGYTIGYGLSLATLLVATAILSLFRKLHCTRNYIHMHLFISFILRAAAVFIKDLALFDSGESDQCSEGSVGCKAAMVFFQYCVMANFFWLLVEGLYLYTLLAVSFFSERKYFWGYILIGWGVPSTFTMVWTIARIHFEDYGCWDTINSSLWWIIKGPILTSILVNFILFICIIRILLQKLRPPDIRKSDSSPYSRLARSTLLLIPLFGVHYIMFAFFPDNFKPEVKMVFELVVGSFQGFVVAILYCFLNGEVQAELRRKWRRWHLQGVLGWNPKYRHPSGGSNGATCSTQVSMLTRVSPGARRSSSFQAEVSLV

Glucocorticoid receptor = target: T3, Glucocorticoid receptor (Homo sapiens, UniProt P04150); conditions: hela s3; note: in other assays of this panel Not Active means under 50% inhibition at 10 µM
T3 sequence (P04150 whole entry): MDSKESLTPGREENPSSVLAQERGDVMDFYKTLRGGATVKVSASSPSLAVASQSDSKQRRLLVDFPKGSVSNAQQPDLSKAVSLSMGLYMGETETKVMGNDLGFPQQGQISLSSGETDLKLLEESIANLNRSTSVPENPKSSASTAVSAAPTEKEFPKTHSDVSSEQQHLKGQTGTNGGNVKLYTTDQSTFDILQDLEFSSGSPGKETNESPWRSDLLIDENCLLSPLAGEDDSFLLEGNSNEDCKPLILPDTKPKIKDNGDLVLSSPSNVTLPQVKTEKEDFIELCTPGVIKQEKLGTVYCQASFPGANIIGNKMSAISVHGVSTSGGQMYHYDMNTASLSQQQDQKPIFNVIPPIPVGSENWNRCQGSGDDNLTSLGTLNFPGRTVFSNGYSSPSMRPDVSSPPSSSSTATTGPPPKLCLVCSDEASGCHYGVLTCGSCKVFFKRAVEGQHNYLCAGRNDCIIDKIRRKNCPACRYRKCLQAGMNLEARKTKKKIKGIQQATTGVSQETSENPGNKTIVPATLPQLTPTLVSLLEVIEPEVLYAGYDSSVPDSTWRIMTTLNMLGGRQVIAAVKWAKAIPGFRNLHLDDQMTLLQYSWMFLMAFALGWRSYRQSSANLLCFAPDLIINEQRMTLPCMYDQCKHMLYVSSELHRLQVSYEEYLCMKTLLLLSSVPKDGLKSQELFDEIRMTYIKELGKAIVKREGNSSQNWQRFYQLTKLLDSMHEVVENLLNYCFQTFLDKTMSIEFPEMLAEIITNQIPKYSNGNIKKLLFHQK

Melanocortin receptor 3 = Melanocortin receptor 3 (Homo sapiens, UniProt P41968); type: cell membranes, Membrane; conditions: hek293; note: in other assays of this panel Not Active means under 50% inhibition at 10 µM
Estrogen receptor beta = Estrogen receptor beta (Homo sapiens, UniProt Q92731); conditions: sf9; note: in other assays of this panel Not Active means under 50% inhibition at 10 µM

Measured: IC50

Sequence of Acetylcholinesterase (P22303 whole entry): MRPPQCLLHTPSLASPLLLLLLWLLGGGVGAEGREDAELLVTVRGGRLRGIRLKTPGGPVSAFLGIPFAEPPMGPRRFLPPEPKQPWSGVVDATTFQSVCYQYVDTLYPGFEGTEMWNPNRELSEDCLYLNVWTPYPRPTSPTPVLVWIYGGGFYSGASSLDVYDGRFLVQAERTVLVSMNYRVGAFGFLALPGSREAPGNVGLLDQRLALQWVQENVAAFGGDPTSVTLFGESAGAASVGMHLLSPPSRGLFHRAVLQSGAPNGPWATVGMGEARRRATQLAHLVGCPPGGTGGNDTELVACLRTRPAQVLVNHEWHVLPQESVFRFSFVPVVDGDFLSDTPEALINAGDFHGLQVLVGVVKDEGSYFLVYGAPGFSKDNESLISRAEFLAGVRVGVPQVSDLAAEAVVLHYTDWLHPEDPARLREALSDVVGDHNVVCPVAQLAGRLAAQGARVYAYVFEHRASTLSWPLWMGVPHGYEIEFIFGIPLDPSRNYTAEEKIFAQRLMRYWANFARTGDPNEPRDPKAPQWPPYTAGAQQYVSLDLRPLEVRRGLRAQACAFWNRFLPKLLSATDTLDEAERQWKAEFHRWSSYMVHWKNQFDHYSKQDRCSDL
Sequence of Melanocortin receptor 3 (P41968 whole entry): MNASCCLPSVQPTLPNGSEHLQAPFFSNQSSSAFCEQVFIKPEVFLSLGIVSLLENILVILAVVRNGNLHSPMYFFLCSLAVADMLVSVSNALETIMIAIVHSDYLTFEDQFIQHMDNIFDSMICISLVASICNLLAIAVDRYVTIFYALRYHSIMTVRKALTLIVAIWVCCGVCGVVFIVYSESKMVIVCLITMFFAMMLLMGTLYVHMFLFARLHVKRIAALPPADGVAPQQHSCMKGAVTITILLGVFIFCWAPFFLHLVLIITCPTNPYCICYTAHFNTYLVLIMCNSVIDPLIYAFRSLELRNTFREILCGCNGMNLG
Sequence of Estrogen receptor beta (Q92731 whole entry): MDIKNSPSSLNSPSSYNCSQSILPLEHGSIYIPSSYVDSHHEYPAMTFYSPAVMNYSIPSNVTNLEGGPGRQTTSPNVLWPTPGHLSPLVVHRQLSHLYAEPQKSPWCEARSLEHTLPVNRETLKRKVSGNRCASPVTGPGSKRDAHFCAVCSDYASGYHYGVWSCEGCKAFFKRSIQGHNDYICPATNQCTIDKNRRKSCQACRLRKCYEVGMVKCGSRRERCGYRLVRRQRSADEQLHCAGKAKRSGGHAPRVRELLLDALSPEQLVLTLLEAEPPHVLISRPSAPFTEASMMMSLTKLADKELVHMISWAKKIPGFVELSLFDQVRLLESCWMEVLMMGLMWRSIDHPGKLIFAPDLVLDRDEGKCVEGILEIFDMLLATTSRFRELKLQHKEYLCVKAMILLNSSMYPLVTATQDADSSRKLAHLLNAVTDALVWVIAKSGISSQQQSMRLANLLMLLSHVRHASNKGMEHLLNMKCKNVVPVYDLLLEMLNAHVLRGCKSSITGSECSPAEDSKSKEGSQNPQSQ

C=C(CC)C(=O)c1ccc(OCC(=O)O)c(Cl)c1Cl [ETHACRYNIC ACID]
not listed: Estrogen receptor beta
Not Active: all other assays above

COc1ccccc1OCC(O)COC(N)=O (stereo not given) [METHOCARBAMOL]
not listed: Estrogen receptor beta
Not Active: all other assays above

CC(C(=O)O)c1ccc(CC2CCCC2=O)cc1 (stereo not given) [LOXOPROFEN]
not listed: Glucocorticoid receptor
Not Active: all other assays above

CCN[C@@H](C)Cc1cccc(C(F)(F)F)c1 [DEXFENFLURAMINE]
not listed: Estrogen receptor beta
Not Active: all other assays above

COc1ccccc1OCC(O)CO (stereo not given) [GUAIFENESIN]
not listed: Glucocorticoid receptor
Not Active: all other assays above

CS(=O)(=O)OCCCCOS(C)(=O)=O [BUSULFAN]
Not Active: Acetylcholinesterase | Interstitial collagenase | [1] | Melanocortin receptor 3

C[C@]12CCC(=O)C=C1CC[C@@H]1[C@@H]2[C@@H](O)C[C@@]2(C)[C@H]1CC[C@]2(O)C(=O)CO [HYDROCORTISONE]
not listed: Glucocorticoid receptor
Not Active: all other assays above

CCC[C@@H]1C[C@@H](C(=O)N[C@@H]([C@H]2O[C@H](SC)[C@H](O)[C@@H](O)[C@H]2O)[C@H](C)Cl)N(C)C1 [CLINDAMYCIN]
not listed: Glucocorticoid receptor
Not Active: all other assays above

CC(=O)O[C@]1(C(C)=O)CC[C@H]2[C@@H]3C=C(Cl)C4=CC(=O)[C@@H]5C[C@@H]5[C@]4(C)[C@H]3CC[C@@]21C [CYPROTERONE ACETATE]
not listed: Glucocorticoid receptor
Not Active: all other assays above

CN(Cc1cnc2nc(N)nc(N)c2n1)c1ccc(C(=O)N[C@@H](CCC(=O)O)C(=O)O)cc1 [METHOTREXATE]
not listed: Glucocorticoid receptor
Not Active: all other assays above

C/C=C\c1ccc(O)c(OC)c1 [ISOEUGENOL]
not listed: Estrogen receptor beta
Not Active: all other assays above

Nc1nc(Cl)nc2c1ncn2[C@H]1C[C@H](O)[C@@H](CO)O1 [CLADRIBINE]
not listed: Estrogen receptor beta
Not Active: all other assays above

CCn1cc(C(=O)O)c(=O)c2cc(F)c(N3CCNCC3)nc21 [ENOXACIN]
not listed: Glucocorticoid receptor
Not Active: all other assays above

O=C(O)c1cc(=O)c2c(OCC(O)COc3cccc4oc(C(=O)O)cc(=O)c34)cccc2o1 [CROMOLYN]
not listed: Glucocorticoid receptor
Not Active: all other assays above

O=c1cc(-c2ccccc2)oc2ccc3ccccc3c12 [BETA-NAPHTHOFLAVONE]
not listed: Glucocorticoid receptor
Not Active: all other assays above

CC(=O)O[C@]1(C(C)=O)CC[C@H]2[C@@H]3C=C(C)C4=CC(=O)CC[C@]4(C)[C@H]3CC[C@@]21C [MEGESTROL ACETATE]
Not Active: Acetylcholinesterase | Interstitial collagenase | [1] | Melanocortin receptor 3

CC[C@H]1OC(=O)[C@H](C)[C@@H](O[C@H]2C[C@@](C)(OC)[C@@H](O)[C@H](C)O2)[C@H](C)[C@@H](O[C@@H]2O[C@H](C)C[C@H](N(C)C)[C@H]2O)[C@](C)(O)C[C@@H](C)CN(C)[C@H](C)[C@@H](O)[C@]1(C)O [AZITHROMYCIN]
not listed: Glucocorticoid receptor
Not Active: all other assays above

COC(=O)c1ccccc1O [METHYL SALICYLATE]
not listed: Glucocorticoid receptor
Not Active: all other assays above

OCCO [ETHYLENE GLYCOL]
Not Active: Acetylcholinesterase | Interstitial collagenase | [1] | Melanocortin receptor 3

NC[C@H]1O[C@H](O[C@H]2[C@H](O)[C@@H](O[C@H]3O[C@H](CO)[C@@H](O)[C@H](N)[C@H]3O)[C@H](N)C[C@@H]2N)[C@H](O)[C@@H](O)[C@@H]1O [KANAMYCIN]
not listed: Estrogen receptor beta
Not Active: all other assays above

NC[C@@H]1O[C@H](O[C@H]2[C@@H](O)[C@H](O[C@@H]3[C@@H](O)[C@H](N)C[C@H](N)[C@H]3O[C@H]3O[C@H](CN)[C@@H](O)[C@H](O)[C@H]3N)O[C@@H]2CO)[C@H](N)[C@@H](O)[C@@H]1O [FRAMYCETIN]
not listed: Glucocorticoid receptor
Not Active: all other assays above

[N-]=[N+]=CC(=O)OC[C@H](N)C(=O)O [AZASERINE]
Not Active: Acetylcholinesterase | Interstitial collagenase | [1] | Melanocortin receptor 3

C#C[C@]1(O)CC[C@H]2[C@@H]3CCC4=Cc5oncc5C[C@]4(C)[C@H]3CC[C@@]21C [DANAZOL]
not listed: Glucocorticoid receptor
Not Active: all other assays above

N=C(N)N/N=C/c1c(Cl)cccc1Cl [GUANABENZ]
Not Active: Acetylcholinesterase | Interstitial collagenase | [1] | Melanocortin receptor 3

NC(=O)N1c2ccccc2C=Cc2ccccc21 [CARBAMAZEPINE]
not listed: Glucocorticoid receptor
Not Active: all other assays above

COc1ccc(Cc2nccc3cc(OC)c(OC)cc23)cc1OC [PAPAVERINE]
not listed: Glucocorticoid receptor
Not Active: all other assays above

C#C[C@]1(O)CC[C@H]2[C@@H]3CCc4cc(O)ccc4[C@H]3CC[C@@]21C [ETHINYL ESTRADIOL]
not listed: Glucocorticoid receptor
Not Active: all other assays above

CC(C)C[C@H]1C(=O)N2CCC[C@H]2[C@]2(O)O[C@](NC(=O)[C@@H]3C=C4c5cccc6[nH]c(Br)c(c56)C[C@H]4N(C)C3)(C(C)C)C(=O)N12 [BROMOCRIPTINE]
not listed: Estrogen receptor beta
Not Active: all other assays above

CCOC(=O)[C@H](CCc1ccccc1)N[C@@H](C)C(=O)N1CCC[C@H]1C(=O)O
not listed: Estrogen receptor beta
Not Active: all other assays above

CC(C)(CO)C(O)C(=O)NCCCO (stereo not given) [PANTHENOL]
not listed: Glucocorticoid receptor
Not Active: all other assays above

O=C(O)c1cccnc1 [NIACIN]
not listed: Glucocorticoid receptor
Not Active: all other assays above

C[C@H](C(=O)O)c1cccc(C(=O)c2ccccc2)c1 [DEXKETOPROFEN]
not listed: Glucocorticoid receptor
Not Active: all other assays above
